This series in a line: Solubility. It counts as physicochemical. The settings on record: CB[10] alone.

SMILES strings stand for the structures.

For the compound `O=C1N2CN3C(=O)N4CN5C(=O)N6CN7C(=O)N8CN9C(=O)N%10CN%11C(=O)N%12CN%13C(=O)N%14CN%15C(=O)N%16CN%17C(=O)N%18CN%19C(=O)N%20CN1C1C2N2CN%21C(=O)N(CN%22C(=O)N(CN%23C(=O)N(CN%24C(=O)N(CN%25C(=O)N(CN%26C(=O)N(CN%27C(=O)N(CN%28C(=O)N(CN%29C(=O)N(CN1C2=O)C%20C%19%29)C%18C%17%28)C%16C%15%27)C%14C%13%26)C%12C%11%25)C%10C9%24)C8C7%23)C6C5%22)C4C3%21` (stereo not shown) [CB[10], cucurbit[10]uril], the solubility entry is on record as “insoluble”.

The record behind these values is US20230373962A1, “SUPRAMOLECULAR MOLECULES FOR THE TREATMENT OF CANCER” (The University of Birmingham, priority 2020, published 2023).
